Laboratory results reported in article PMC7484352 (Archives of biochemistry and biophysics, 2020).

Target: T1, bDAD (DAD V1M) (Burkholderia sp. AZ11, UniProt F7J5X4, V1M)
T1 sequence (F7J5X4 1-177): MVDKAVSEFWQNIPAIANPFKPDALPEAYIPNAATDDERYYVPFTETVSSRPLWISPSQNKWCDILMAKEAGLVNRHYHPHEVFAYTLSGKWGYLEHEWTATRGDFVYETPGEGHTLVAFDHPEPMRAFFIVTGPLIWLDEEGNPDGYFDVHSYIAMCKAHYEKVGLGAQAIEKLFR
Assay: UV absorbance at […] nm, DHA consumption
Type: biochemical

Question: With `O=C(O)c1ccc(O)cc1` [4HB, 4-hydroxybenzoic acid] as the compound, how does the Ki read?
Answer: 1100 ± 400 µM
